Values joined by “and” are separate entries in the source; they are usually repeats but may differ in a detail not shown here. Equal entries are not always repeated.
Columns and labels:
canine TRPM8 = molecular target: T1, canine TRPM8 (Canis lupus familiaris, UniProt Q1A7N1); experiment: In Vitro Canine TRPM8 Functional Assay (Ca2+ fluorescence, icilin activation); assay type: cell-based; conditions: for % Inh @ 0.5 μM: 0.5 μM compound; for % Inh @ 0.5 μM / inhibition at 0.2 µM / inhibition at 0.5 µM / % Inh @ 0.2 μM / inhibition at 1 µM / % Inh @ 1 μM: canine TRPM8 HEK293, icilin; for IC50: HEK293 cells stably expressing canine TRPM8, icilin activation, Ca2+ fluorescence; for inhibition at 0.2 µM: HEK293, 0.2 μM compound; for inhibition at 0.5 µM: HEK293, 0.5 μM compound; for % Inh @ 0.2 μM: 0.2 μM compound; for inhibition at 1 µM: HEK293, 1 μM compound; for % Inh @ 1 μM: 1 μM compound
T1 construct: expressed in transfected cells
Procedure, shortened: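 Antagonism read as inhibition of the intracellular Ca2+ rise evoked by icilin (~EC80), measured by FLIPR or FDSS. Stable canine TRPM8 HEK293 line, Calcium 3 dye; 5 min compound preincubation. Normalised, basal-corrected peak fluorescence from quadruplicates fitted to sigmoidal curves.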

[1] = tested on: icilin-induced “wet-dog” shakes; experiment: Reversal of Icilin-Induced Behaviors in Rats; assay type: in vivo; conditions: percent inhibition (reversal) of wet-dog shakes, rat, 30 mg/kg P.O., 20′ post-icilin
Experimental: Similar shaking or jumping behavior was also evident in mice, rabbits, cats, dogs and monkeys. In humans, icilin produced a sensation of coolness on contact with mucous membranes, cold prickling when 0.1 mg was dropped on the tongue and coldness in the mouth, pharynx and chest lasting 30-60 minutes when 5-10 mg was ingested orally (Wei E T, Seid D A, J Pharm Pharmacol. 1983, 35, 110). The inhibition or reversal of icilin-induced shaking behaviors in rodents provides evidence for the utility of TRPM8 antagonists of the formula (I) in treating or preventing a disease, syndrome, disorder or condition in a subject in which the disease, syndrome, disorder or condition is affected by the modulation of TRPM8 receptors.
Male Sprague Dawley rats (225-450 g, Charles River Labs, n=4-6/treatment) were used to evaluate the ability of selected compounds of the formula (I) to reverse icilin-induced “wet-dog” shakes. Icilin was administered in PEG-400 or 10% solutol/H2O, at 1.0 or 3.0 mg/kg, i.p. and spontaneous “wet-dog” shakes (WDS) were counted 10-20 minutes post-icilin. […] Results are presented as a percent inhibition of shakes, which was calculated as [1−(test compound WDS count/vehicle WDS count)]×100.

T1 sequence (Q1A7N1 1-1104): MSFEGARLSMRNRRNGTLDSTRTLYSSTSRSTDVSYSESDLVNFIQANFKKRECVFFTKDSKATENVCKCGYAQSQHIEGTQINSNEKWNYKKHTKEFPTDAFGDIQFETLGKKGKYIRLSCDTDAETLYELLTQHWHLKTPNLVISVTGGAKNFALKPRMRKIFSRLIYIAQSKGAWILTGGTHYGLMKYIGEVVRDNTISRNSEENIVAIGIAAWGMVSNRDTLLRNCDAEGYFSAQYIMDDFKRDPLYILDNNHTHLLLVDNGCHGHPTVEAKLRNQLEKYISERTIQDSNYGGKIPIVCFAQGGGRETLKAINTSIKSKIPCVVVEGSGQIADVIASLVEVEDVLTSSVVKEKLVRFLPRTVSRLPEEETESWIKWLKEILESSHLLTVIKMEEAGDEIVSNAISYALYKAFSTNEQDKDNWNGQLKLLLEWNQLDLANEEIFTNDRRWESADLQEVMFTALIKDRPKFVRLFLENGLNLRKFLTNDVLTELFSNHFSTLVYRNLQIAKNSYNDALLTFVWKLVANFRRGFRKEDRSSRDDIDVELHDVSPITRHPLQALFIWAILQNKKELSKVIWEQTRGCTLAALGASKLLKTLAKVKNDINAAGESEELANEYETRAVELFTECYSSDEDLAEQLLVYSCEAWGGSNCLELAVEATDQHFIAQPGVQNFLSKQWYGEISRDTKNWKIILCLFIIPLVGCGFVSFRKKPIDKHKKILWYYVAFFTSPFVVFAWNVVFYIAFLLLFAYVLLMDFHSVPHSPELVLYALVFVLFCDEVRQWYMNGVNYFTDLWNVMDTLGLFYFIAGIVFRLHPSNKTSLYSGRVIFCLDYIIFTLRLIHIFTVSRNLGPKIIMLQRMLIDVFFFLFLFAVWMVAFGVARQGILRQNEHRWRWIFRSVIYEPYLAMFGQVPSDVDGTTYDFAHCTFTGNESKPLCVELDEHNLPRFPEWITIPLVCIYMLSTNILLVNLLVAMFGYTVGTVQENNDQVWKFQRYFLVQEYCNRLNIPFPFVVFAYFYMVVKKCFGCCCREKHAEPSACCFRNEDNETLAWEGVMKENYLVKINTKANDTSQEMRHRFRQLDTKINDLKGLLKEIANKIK

IC50 (canine TRPM8)	inhibition at 0.5 µM (canine TRPM8)	SMILES	other results
43 nM	–	O=C(C(Nc1ccccc1F)c1ccc(C(F)(F)F)cc1)N1CCCC1c1ccccc1 (single isomer, unassigned) [Cpd 129]	% Inh @ 0.5 μM (canine TRPM8; 0.5 µM): 101%; % Inh ([1]; 30 mg/kg): 50% ± 21%
45 nM and 74 nM	101%	O=C(C(Nc1ccccc1F)c1ccc(C(F)(F)F)cc1)N1CCCC1c1ccccc1F (single isomer, unassigned) [Cpd 149]	inhibition at 0.2 µM (canine TRPM8): 83%; % Inh ([1]; 30 mg/kg): 61% ± 15%
4.6 nM	100%	O=C(C(Nc1ccccc1F)c1ccc(C(F)(F)F)cc1)N1CCCC1c1ccccc1 (single isomer, unassigned) [Cpd 128]	% Inh ([1]; 30 mg/kg): 56% ± 19%
5 nM	–	O=C(C(Nc1ccccc1F)c1ccc(Cl)cc1)N1CCCC1c1ccccc1F (single isomer, unassigned) [Cpd 158]	% Inh @ 0.5 μM (canine TRPM8; 0.5 µM): 98%; % Inh [1]: 86% ± 7%
14 nM and 8.7 nM	–	O=C(C(Nc1ccccc1F)c1ccc(C(F)(F)F)cc1)N1CCCC1c1cccc(F)c1 (stereo not shown) [Cpd 134]	% Inh @ 0.5 μM (canine TRPM8; 0.5 µM): 98%; % Inh [1]: 75% ± 11%
12 nM and 4 nM	100%	O=C(C(Nc1ccccc1F)c1ccc(C(F)(F)F)cc1)N1CCC[C@H]1c1ccccc1F (stereo partly drawn) [Cpd 150, 2-(2-Fluoro-phenylamino)-1-[(2S)-2-(2-fluoro-phenyl)-pyrrolidin-1-yl]-2-(4-trifluoromethyl-phenyl)-ethanone]	inhibition at 0.2 µM (canine TRPM8): 89%; % Inh [1]: 63% ± 15%
17 nM	99%	O=C(C(Nc1ccccc1F)c1ccc(C(F)(F)F)cc1)N1CCCC1c1ccccc1Cl (single isomer, unassigned) [Cpd 155]	% Inh [1]: 79% ± 13%
8.4 nM	–	O=C(C(Nc1ccccc1F)c1ccc2ncccc2c1)N1CCCC1c1ccccc1F (single isomer, unassigned) [Cpd 247]	inhibition at 0.2 µM (canine TRPM8): 93%
18 nM	97%	O=C(C(Nc1ccccc1)c1ccc(Cl)cc1)N1CCCC1c1ccccc1F (stereo not shown) [Cpd 142]	–
15 nM	98%	O=C(C(Nc1ccccc1)c1ccc(Cl)cc1)N1CCCC1c1ccccc1Cl (stereo not shown) [Cpd 84]	–
–	–	Cc1cccc(C)c1NC(C(=O)N1CCc2ccccc21)c1ccc(C(F)(F)F)cc1 (racemic) [Cpd 35]	% Inh @ 0.5 μM (canine TRPM8): 72.417%
–	–	O=C(C(Nc1ccccc1)c1ccccn1)N1Cc2ccccc2C1 (racemic) [Cpd 216]	% Inh @ 0.2 μM (canine TRPM8): 32%
25.4 nM	–	O=C(C(c1ccc(C(F)(F)F)cc1)N1CCc2ccccc21)N1CCCC1c1ccccc1F (stereo not shown) [Cpd 228]	–
84 nM	98%	O=C(C(Nc1ccc(F)cc1)c1ccc(C(F)(F)F)cc1)N1Cc2ccccc2C1 (stereo not shown) [Cpd 77]	–
162 nM	99%	O=C(C(Nc1cccc(F)c1F)c1ccc(Cl)cc1)N1CCCC1c1ccccc1Cl (single isomer, unassigned) [Cpd 165]	–
89 nM	100%	O=C(C(Nc1ccccc1)c1cccc(C(F)(F)F)c1)N1CCCC1c1ccccc1Cl (stereo not shown) [Cpd 97]	–
257 nM	–	CC(C)(C)c1ccc(C(Nc2ccccc2)C(=O)N2CCc3ccccc32)cc1 (stereo not shown) [Cpd 15]	inhibition at 1 µM (canine TRPM8): 94.8%
7.46 nM	–	O=C(C(Nc1ccccc1)c1ccc(C(F)(F)F)cc1)N1CCCC1c1ccccc1F (single isomer, unassigned) [Cpd 46]	% Inh @ 0.5 μM (canine TRPM8; 0.5 µM): 101.53%
69.7 nM	100%	O=C(C(Nc1ccc(F)cc1)c1ccc(Cl)cc1)N1CCCC1c1ccccc1 (stereo not shown) [Cpd 119]	–
12 nM	–	O=C(C(Nc1ccccc1F)c1ccc(-c2ccccn2)cc1)N1CCC[C@H]1c1ccccc1F (mixture of isomers) [Cpd 289]	inhibition at 0.2 µM (canine TRPM8): 84%
12.3 nM	–	O=C(C(Nc1ccccc1F)c1ccc2ncccc2c1)N1CCCC1c1ccccc1F (stereo not shown) [Cpd 248]	inhibition at 0.2 µM (canine TRPM8): 94%
11 nM	102%	O=C(C(Nc1c(F)cccc1F)c1ccc(Cl)cc1)N1CCCC1c1ccccc1F (stereo not shown) [Cpd 144]	–
778 nM	–	CC(C)(C)c1ccc(C(Nc2ccccc2)C(=O)N2CCCC2c2cccc(Cl)c2)cc1 (single isomer, unassigned) [Cpd 8]	inhibition at 1 µM (canine TRPM8): 86.6%

IC50 (canine TRPM8)	inhibition at 0.5 µM (canine TRPM8)	SMILES	other results
290 nM	90%	O=C(C(CNc1ccccc1)c1ccc(C(F)(F)F)cc1)N1Cc2ccccc2C1 (stereo not shown) [Cpd 100]	–
459 nM	90.7%	O=C(C(Nc1ccccc1F)c1ccc(C(F)(F)F)cc1)N1CCc2ccccc21 (stereo not shown) [Cpd 36]	–
3 nM	–	CC(=O)Nc1ccc(C2CCCN2C(=O)C(Nc2ccccc2F)c2ccc(C(F)(F)F)cc2)cc1 (stereo not shown) [Cpd 317]	inhibition at 0.2 µM (canine TRPM8): 102%
161 nM	–	CC(C)(C)c1ccc(C(Nc2ccccc2)C(=O)N2CCCC2c2cccc(Cl)c2)cc1 (single isomer, unassigned) [Cpd 9]	% Inh @ 1 μM (canine TRPM8; 1 µM): 102.98%
33 nM	–	O=C(O)c1cccc([C@@H]2CCCN2C(=O)C(Nc2ccccc2F)c2ccc(C(F)(F)F)cc2)c1 (mixture of isomers) [Cpd 349, 3-{(1S)-1-[2-(2-Fluoro-phenylamino)-2-(4-trifluoromethyl-phenyl)-acetyl]-pyrrolidin-2-yl}-benzoic acid]	inhibition at 0.2 µM (canine TRPM8): 100%
9 nM and 10 nM	–	O=C(C(Nc1ccccc1F)c1ccc(-c2cncnc2)cc1)N1CCCC1c1ccccc1F (stereo not shown) [Cpd 288]	% Inh @ 0.2 μM (canine TRPM8; 0.2 µM): 95%; inhibition at 0.2 µM (canine TRPM8): 91%
–	–	CC(C)(C)c1ccc(C(Nc2ccccc2)C(=O)N2CCCC2CNc2ccccc2)cc1 (single isomer, unassigned) [Cpd 368]	% Inh @ 1 μM (canine TRPM8): 15.864%
30.6 nM	–	O=C(C(c1ccc(C(F)(F)F)cc1)N1CCc2ccccc21)N1CCCC1c1ccccc1 (stereo not shown) [Cpd 227]	–
24 nM	–	O=C(C(Nc1ccccc1F)c1cc2ccccc2s1)N1CCCC1c1ccncc1 (single isomer, unassigned) [Cpd 323]	% Inh @ 0.2 μM (canine TRPM8; 0.2 µM): 95%
172 nM	–	CC(C)(C)c1ccc(C(Nc2ccccc2)C(=O)N2CCCCC2c2ccccc2)cc1 (stereo not shown) [Cpd 11]	inhibition at 1 µM (canine TRPM8): 103%
47 nM	–	O=C(O)c1ccc(-c2ccc(C(Nc3ccccc3F)C(=O)N3CCCC3c3ccccc3F)cc2)cc1 (stereo not shown) [Cpd 295, 4′-{1-(2-Fluoro-phenylamino)-2-[2-(2-fluoro-phenyl)-pyrrolidin-1-yl]-2-oxo-ethyl}-biphenyl-4-carboxylic acid]	inhibition at 0.2 µM (canine TRPM8): 90%
53.8 nM	99%	CC(C)(C)c1ccc(C(Nc2ccccc2)C(=O)N2CCCC2c2ccncc2)cc1 (stereo not shown) [Cpd 53]	–
16 nM	99%	COc1ccccc1C1CCCN1C(=O)C(Nc1c(F)cccc1F)c1ccc(Cl)cc1 (stereo not shown) [Cpd 145]	–
–	–	O=C(C(c1ccc(C(F)(F)F)cc1)N1CCCc2ccccc21)N1CCCC1c1ccccc1F (mixture of isomers) [Cpd 292]	% Inh @ 0.2 μM (canine TRPM8): 45%
101 nM	97%	O=C(C(Nc1ccc(F)cc1F)c1ccc(Cl)cc1)N1CCCC1c1ccccc1F (stereo not shown) [Cpd 123]	–
85 nM	–	O=C(C(Nc1ccccc1F)c1ccc(C(F)(F)F)cc1)N1CCCC1c1ccccc1 (single isomer, unassigned) [Cpd 190]	inhibition at 0.2 µM (canine TRPM8): 89%
–	–	O=C(C(Nc1ccccc1F)c1ccc2c(c1)CCO2)N1CCCC1c1cccnc1 (racemic) [Cpd 282]	% Inh @ 0.2 μM (canine TRPM8): 17%
–	–	O=C(C(Nc1c(F)cccc1F)c1ccc(Cl)cc1)N1CCCC1c1cccnc1 (mixture of isomers) [Cpd 270]	% Inh @ 0.2 μM (canine TRPM8): 58%
233 nM	–	O=C(C(CNc1ccccc1)c1ccc(C(F)(F)F)cc1)N1CCc2ccccc21 (racemic) [Cpd 40]	% Inh @ 0.5 μM (canine TRPM8): 90.495%
2 nM	–	Nc1cccc(C2CCCN2C(=O)C(Nc2ccccc2F)c2ccc(C(F)(F)F)cc2)c1 (stereo not shown) [Cpd 305]	inhibition at 0.2 µM (canine TRPM8): 101%
146 nM	93%	O=C(C(Nc1ccccc1F)c1ccc(Cl)cc1)N1CCCC1c1ccccc1F (single isomer, unassigned) [Cpd 157]	–
74 nM	91%	O=C(C(Nc1ccccc1)c1ccc(Br)cc1)N1Cc2ccccc2C1 (stereo not shown) [Cpd 71]	–
40 nM	–	COC(=O)c1cccc([C@@H]2CCCN2C(=O)C(Nc2ccccc2F)c2ccc(C(F)(F)F)cc2)c1 (mixture of isomers) [Cpd 347]	inhibition at 0.2 µM (canine TRPM8): 99%

From patent US8143259B2, “Cold menthol receptor antagonists” (Janssen Pharmaceutica, NV, priority 2008, dated 2012)
